Experimental data: ChEMBL document CHEMBL5532637, “Antimicrobial activity of natural and semi-synthetic carbazole alkaloids” (Eur J Med Chem, 2023)
Values after ≈ are worked out from the molar mass of the structure shown.

Assays:
Klebsiella pneumoniae [1] = test: Antibacterial activity against colistin resistant Klebsiella pneumoniae assessed as inhibition of bacterial growth incubated for 24 hrs; type: functional
Staphylococcus aureus [2] = test: Antibacterial activity against methicillin-resistant Staphylococcus aureus assessed as inhibition of bacterial growth incubated for 12 to 36 hrs by broth dilution method; type: functional; details: time 12-36 hrs
Enterococcus faecalis = test: Antibacterial activity against multidrug-resistant Enterococcus faecalis assessed as inhibition of bacterial growth incubated for 12 to 36 hrs by broth dilution method; type: functional; details: time 12-36 hrs
Staphylococcus aureus [3] = test: Antibacterial activity against Staphylococcus aureus ATCC 6538 assessed as inhibition of bacterial growth incubated for 24 hrs by disk diffusion method; type: functional
Bacillus subtilis [4] = test: Antibacterial activity against Bacillus subtilis NRRL B-14819 assessed as inhibition of bacterial growth incubated for 24 hrs by disk diffusion method; type: functional
Micrococcus luteus = test: Antibacterial activity against Micrococcus luteus ATCC 21881 assessed as inhibition of bacterial growth incubated for 24 hrs by disk diffusion method; type: functional
Escherichia coli [5] = test: Antibacterial activity against Escherichia coli ATCC 25922 assessed as inhibition of bacterial growth incubated for 24 hrs by disk diffusion method; type: functional
Candida albicans [6] = test: Antifungal activity against Candida albicans assessed as inhibition of fungal growth incubated for 1 hr by serial plate dilution method; type: functional
Staphylococcus aureus [7] = test: Antibacterial activity against Staphylococcus aureus assessed as inhibition of bacterial growth by two-fold serial dilution assay; type: functional
Staphylococcus aureus [8] = test: Antibacterial activity against Staphylococcus aureus ATCC 29213 assessed as inhibition of bacterial growth by two-fold serial dilution assay; type: functional
Staphylococcus aureus [9] = test: Antibacterial activity against methicillin-resistant Staphylococcus aureus assessed as inhibition of bacterial growth by two-fold serial dilution assay; type: functional
Staphylococcus aureus [10] = test: Antibacterial activity against Staphylococcus aureus ATCC 25923 assessed as inhibition of bacterial growth by two-fold serial dilution assay; type: functional
Staphylococcus aureus [11] = test: Antibacterial activity against Staphylococcus aureus ATCC 25923 assessed as inhibition of bacterial growth incubated for 24 hrs by broth dilution assay; type: functional
Staphylococcus aureus [12] = test: Antibacterial activity against methicillin-resistant Staphylococcus aureus clinical isolate assessed as inhibition of bacterial growth incubated for 24 hrs by broth dilution assay; type: functional
Staphylococcus aureus [13] = test: Antimicrobial activity against Staphylococcus aureus ATCC 6538 assessed as inhibition of microbial growth by microbroth dilution method; type: functional
Klebsiella pneumoniae [14] = test: Antimicrobial activity against Klebsiella pneumoniae ATCC 4352 assessed as inhibition of microbial growth by microbroth dilution method; type: functional
Candida albicans [15] = test: Antimicrobial activity against Candida albicans ATCC 10231 assessed as inhibition of microbial growth by microbroth dilution method; type: functional
Escherichia coli [16] = test: Antibacterial activity against Escherichia coli assessed as inhibition of bacterial growth incubated for 18 to 24 hrs by broth macrodilution assay; type: functional; details: time 18-24 hrs
Pseudomonas aeruginosa = test: Antibacterial activity against Pseudomonas aeruginosa assessed as inhibition of bacterial growth incubated for 18 to 24 hrs by broth macrodilution assay; type: functional; details: time 18-24 hrs
Salmonella typhi = test: Antibacterial activity against Salmonella typhi assessed as inhibition of bacterial growth incubated for 18 to 24 hrs by broth macrodilution assay; type: functional, Salmonella enterica subsp. enterica serovar Typhi; details: Salmonella enterica; time 18-24 hrs
Candida albicans [17] = test: Antifungal activity against Candida albicans ATCC 10231 assessed as inhibition of fungal growth incubated for 24 hrs by broth dilution method; type: functional
Nakaseomyces glabratus = test: Antifungal activity against Candida glabrata DSM 11226 assessed as inhibition of fungal growth incubated for 24 hrs by broth dilution method; type: functional
Pichia kudriavzevii = test: Antifungal activity against Candida krusei DSM 6128 assessed as inhibition of fungal growth incubated for 24 hrs by broth dilution method; type: functional
Staphylococcus aureus [18] = test: Antibacterial activity against methicillin-resistant Staphylococcus aureus N315 assessed as inhibition of bacterial growth by micro broth dilution method; type: functional
Escherichia coli [19] = test: Antibacterial activity against Escherichia coli assessed as inhibition of bacterial growth by micro broth dilution method; type: functional
Staphylococcus aureus [20] = test: Antimicrobial activity against Staphylococcus aureus assessed as zone of inhibition at 40 ug/ml; type: functional; details: read-out: IZ
Bacillus subtilis [21] = test: Antimicrobial activity against Bacillus subtilis assessed as zone of inhibition at 40 ug/ml; type: functional; details: read-out: IZ
Klebsiella pneumoniae [22] = test: Antimicrobial activity against Klebsiella pneumoniae assessed as zone of inhibition at 40 ug/ml; type: functional; details: read-out: IZ
Escherichia coli [23] = test: Antimicrobial activity against Escherichia coli assessed as zone of inhibition at 40 ug/ml; type: functional; details: read-out: IZ
Aspergillus niger = test: Antimicrobial activity against Aspergillus niger assessed as zone of inhibition at 50 ug/ml; type: functional; details: read-out: IZ
Aspergillus flavus = test: Antimicrobial activity against Aspergillus flavus assessed as zone of inhibition at 50 ug/ml; type: functional; details: read-out: IZ
Fusarium oxysporum = test: Antimicrobial activity against Fusarium oxysporum assessed as zone of inhibition at 50 ug/ml; type: functional; details: read-out: IZ
Staphylococcus aureus [24] = test: Antibacterial activity against Staphylococcus aureus ATCC 6538 assessed as inhibition of bacterial growth incubated for 24 hrs by alamar blue assay; type: functional
[25] = system: Staphylococcus epidermidis; test: Antibacterial activity against Staphylococcus epidermidis ATCC 12228 assessed as inhibition of bacterial growth incubated for 24 hrs by alamar blue assay; type: functional

## CCn1c2ccccc2c2c3[nH]c(C(=O)NNC(=O)c4ccc([N+](=O)[O-])cc4)cc3ccc21
Klebsiella pneumoniae [1]
  MIC: 64 µg/mL (≈ 145 µM)

## Oc1cc(-c2ccc3c(c2)[nH]c2ccccc23)cc(O)c1O
Staphylococcus aureus [2]
  MIC: 3.13 µg/mL (≈ 10.7 µM)
Enterococcus faecalis
  MIC: 6.25 µg/mL (≈ 21.5 µM)

## CC1=NN(c2ccccc2)C(=O)/C1=N\NNC(=O)Cn1c2ccccc2c2ccccc21
Staphylococcus aureus [3]
  MIC: 1.1 µg/mL (≈ 2.59 µM)
Bacillus subtilis [4]
  MIC: 1.2 µg/mL (≈ 2.83 µM)
Micrococcus luteus
  MIC: 3.1 µg/mL (≈ 7.3 µM)
Escherichia coli [5]
  MIC: 6.4 µg/mL (≈ 15.1 µM)
Candida albicans [6]
  MIC: 9.6 µg/mL (≈ 22.6 µM)

## Sc1nnc(Cn2c3ccc(Br)cc3c3cc(Br)ccc32)o1
Staphylococcus aureus [7]
  MIC: 0.6 µM (≈ 0.263 µg/mL)
Staphylococcus aureus [8]
  MIC: 0.6 µM (≈ 0.263 µg/mL)
Staphylococcus aureus [9]
  MIC: 0.6 µM (≈ 0.263 µg/mL)
Staphylococcus aureus [10]
  MIC: 0.6 µM (≈ 0.263 µg/mL)

## CCn1c2ccccc2c2c(Cl)c(N/N=C(/C(C)=O)N3CCN(CCO)CC3)ccc21
Staphylococcus aureus [11]
  MIC: 3.12 µg/mL (≈ 7.07 µM)
Staphylococcus aureus [12]
  MIC: 1.56 µg/mL (≈ 3.53 µM)

## Oc1c(/C=N/c2ccc(Cl)cc2Cl)ccc2[nH]c3ccccc3c12
Staphylococcus aureus [13]
  MIC: 1.4 µg/mL
Klebsiella pneumoniae [14]
  MIC: 1.4 µg/mL
Candida albicans [15]
  MIC: 1.4 µg/mL

## CCOC(=O)C1=C(C)NC2=C(C(=O)CC(C)(C)C2)C1c1ccc2c(c1)c1ccccc1n2CC (centres undefined)
Escherichia coli [16]
  MIC: 16 µg/mL (≈ 35 µM)
Pseudomonas aeruginosa
  MIC: 16 µg/mL (≈ 35 µM)
Salmonella typhi
  MIC: 16 µg/mL (≈ 35 µM)

## CNc1nc(Nc2ccc3[nH]c4ccc(Nc5cnc(N)c(NC)n5)cc4c3c2)cnc1N
Candida albicans [17]
  MIC: 250 µg/mL (≈ 566 µM)
Nakaseomyces glabratus
  MIC: 62.5 µg/mL (≈ 142 µM)
Pichia kudriavzevii
  MIC: 31.2 µg/mL (≈ 70.8 µM)

## Cn1c(=O)c2ncn(CC(O)Cn3c4ccccc4c4cc(Br)ccc43)c2n(C)c1=O (centres undefined)
Staphylococcus aureus [18]
  MIC: 8 µM (≈ 3.86 µg/mL)
Escherichia coli [19]
  MIC: 33 µM (≈ 15.9 µg/mL)

## CCn1c2ccccc2c2cc(/C=C/C(=O)c3cc(Cl)cc(Cl)c3OCc3cn(Cc4ccccc4)nn3)ccc21
Staphylococcus aureus [20]
  zone of inhibition at 40 µg/mL: 21.4 mm
Bacillus subtilis [21]
  zone of inhibition at 40 µg/mL: 24.2 mm
Klebsiella pneumoniae [22]
  zone of inhibition at 40 µg/mL: 23.6 mm
Escherichia coli [23]
  zone of inhibition at 40 µg/mL: 26.4 mm
Aspergillus niger
  zone of inhibition at 50 µg/mL: 15 mm
Aspergillus flavus
  zone of inhibition at 50 µg/mL: 12.9 mm
Fusarium oxysporum
  zone of inhibition at 50 µg/mL: 15.3 mm

## COc1ccccc1OCCNCC(O)COc1cccc2[nH]c3ccccc3c12 (centres undefined) [CARVEDILOL]
Staphylococcus aureus [24]
  MIC: 40 µg/mL (≈ 98.4 µM)
[25]
  MIC: 40 µg/mL (≈ 98.4 µM)
